IC50 data for six compounds are collected here from ChEMBL document CHEMBL4339247, “Ascomylactams A-C, Cytotoxic 12- or 13-Membered-Ring Macrocyclic Alkaloids Isolated from the Mangrove Endophytic Fungus Didymella sp. CYSK-4, and Structure Revisions of Phomapyrrolidones A and C” (J Nat Prod, 2019).

What all share (assay type): functional, cell-based
One test has as its system NCI-H460. The test is described as follows: Cytotoxicity in human NCI-H460 cells assessed as reduction in cell viability incubated for 72 hrs by MTT assay. Conditions: NCI-H460, 72 h. On the technique in general: Formazan colour is commonly taken as a measure of viable cells.
The test system of another test is HCT-116. The test is described as follows: Cytotoxicity in human HCT116 cells assessed as reduction in cell viability incubated for 72 hrs by MTT assay. Conditions: HCT-116, 72 h.
For a further test, the system named is MDA-MB-231. The test is described as follows: Cytotoxicity in human MDA-MB-231 cells assessed as reduction in cell viability incubated for 72 hrs by MTT assay. The following applies: MDA-MB-231, 72 h.
A further test concerns SNB-19. The test is described as follows: Cytotoxicity in human SNB19 cells assessed as reduction in cell viability incubated for 72 hrs by MTT assay. The following applies: SNB-19, 72 h.
Another test deals with PC-3. The test is described as follows: Cytotoxicity in human PC3 cells assessed as reduction in cell viability incubated for 72 hrs by MTT assay. Conditions: PC-3, 72 h.
The next test deals with MDA-MB-435. The test is described as follows: Cytotoxicity in human MDA-MB-435 cells assessed as reduction in cell viability incubated for 72 hrs by MTT assay. The following applies: MDA-MB-435, 72 h.

Regarding `CC1=C[C@@]2(C)C(=C(C)[C@H]3[C@@H]4C[C@H](C)C[C@H](C)[C@H]4[C@@H]4Oc5ccc(cc5)C[C@@]5(O)C=C(C(=O)N5)C(=O)[C@@H]2[C@@H]43)[C@H]1C`, the IC50 – broadly, the concentration at which inhibition is half-maximal – was determined as 13 µM with NCI-H460; 4.5 µM in the test with HCT-116; 6.6 µM in the test with MDA-MB-231; 18 µM in the test with SNB-19; 20 µM in the test on PC-3; 12 µM with MDA-MB-435.
Turning to `CC1=C[C@@]2(C)C(=C(C)[C@H]3[C@@H]4C[C@H](C)C[C@H](C)[C@H]4[C@H]4Oc5ccc(cc5)C[C@@H]5C(=O)NC(=O)[C@H]5C(=O)[C@@H]2[C@@H]43)[C@H]1C`, the IC50 was 28 µM in the test on NCI-H460; 25 µM with HCT-116; 30 µM in the test on MDA-MB-231; greater than 50 µM in the test with SNB-19; greater than 50 µM in the test on PC-3; 26 µM in the test on MDA-MB-435.
Turning to `CC1=C[C@@]2(C)C(=C(C)[C@H]3[C@@H]4C[C@H](C)C[C@H](C)[C@H]4[C@H]4Oc5ccc(cc5)C[C@]5(O)NC(=O)[C@]6(O[C@H]65)C(=O)[C@@H]2[C@@H]43)[C@H]1C`, the IC50 amounted to 4.4 µM in the test on NCI-H460; 4.2 µM in the test with HCT-116; 5.1 µM with MDA-MB-231; 7.8 µM with SNB-19; 7.5 µM with PC-3; 7.8 µM in the test with MDA-MB-435.
With `CC1=C[C@@]2(C)C(=C(C)[C@H]3[C@@H]4C[C@H](C)C[C@H](C)[C@H]4[C@H]4Oc5ccc(cc5)C[C@]5(O)NC(=O)[C@]6(O[C@H]65)C(=O)[C@H]2[C@@H]43)[C@H]1C`, the IC50 turned out to be 12 µM in the test on NCI-H460; 15 µM in the test on HCT-116; 12 µM in the test on MDA-MB-231; 29 µM in the test with SNB-19; 22 µM in the test on PC-3; 16 µM with MDA-MB-435.
Take `CO[C@@H]1/C2=C(\O)[C@H]3[C@H]4[C@H](Oc5ccc(cc5)C[C@]1(O)NC2=O)[C@H]1[C@@H](C[C@H](C)C[C@@H]1C)[C@@H]4C(C)=C1[C@@H](C)C(C)=C[C@@]13C`: the IC50 was 4.4 µM with NCI-H460; 5.5 µM with HCT-116; 5.9 µM with MDA-MB-231; 6.8 µM with SNB-19; 5.7 µM in the test on PC-3; 4.9 µM with MDA-MB-435.
As for `COc1cccc2c1C(=O)c1c(O)c3c(c(O)c1C2=O)C[C@@](O)(C(=O)CO)C[C@@H]3O[C@H]1C[C@H](N)[C@@H](O)[C@H](C)O1` [EPIRUBICIN], in the test with SNB-19, the IC50 worked out at 2.3 µM.
